In patent publication US4001207A, “Tertiary-aliphatic amidazo compounds” (priority 1971, dated 1977):

Tests used:
[1] = Temperature of nitrogen/gas evolution, thermal stability; conditions: for temperature at which it begins to evolve nitrogen: begins to evolve nitrogen (slowly); for temperature at which it evolves nitrogen: evolves nitrogen at / above
[2] = Half-life of thermal decomposition; assay type: physicochemical
Method: (§1) It produces 179 cc. of gas per gram at 110° C. The following half-life data have been determined:
(§2) To a rapidly stirred mixture of 39.0 g. (0.2 m.) 1 -tert.-butylhydrazo-1-cyanocyclohexane, 200 ml. methylene chloride and 100 ml. water was added 14.3 g. […] The reaction was stirred an additional 15 mins. after the addition was complete. The methylene chloride layer was separated, washed twice with 50 ml. portions of saturated NaHCO3 solution, dried over anhydrous sodium sulfate, filtered and the methylene chloride evaporated on a rotating evaporator to obtain 35.0 g. of liquid product that assayed 86.5% by an ultra violet spectrophotometric analysis. Distillation gave a product, b.p. 71° C./1.2 mm. of Hg that assayed 97.6% as 1-tert.-butylazo- 1-cyanocyclohexane. The infrared spectrum was in accord with this structure. […] It produces 146 cc. of gas per gram at 130° C. The following half-life data have been determined:
The following half-life data have been determined by gas evolution technique using trichlorobenzene as the solvent: […]

[3] = Preliminary toxicological studies
Source text: The new compositions of the present invention eliminate these problems. Most of the new compositions are liquids and are soluble in petroleum hydrocarbon and most of the other common organic solvents. Thus, no dusting, metering, incorporating, mixing, and dispersing problems are encountered in using these new compositions. […] The less toxic nature of the new compositions coupled with their liquid and high solubility properties allows them to be used in many applications where IXA cannot be used.

[4] = Solubility in petroleum hydrocarbon and common organic solvents; assay type: physicochemical
[5] = Gas produced per gram on thermal decomposition; assay type: physicochemical; conditions: 110° C.
Method: as §1
as §2, with “C.” for “C. The following half-life data have been determined:”

[6] = background statement; cited from earlier work
[7] = cited from earlier work

CC(C)(C)N=NC(C)(C#N)C1CC1 (stereo not drawn) [Example XII, Alpha-tert-butylazo-alpha-cyclopropylpropionitrile]
temperature at which it begins to evolve nitrogen [1]: 75 °C

CC(C)CC(C)(N=NC(C)(C)C)OOC(C)(C)CCC(C)(C)OOC(C)(CC(C)C)N=NC(C)(C)C (stereo not drawn) [LXV, 2,2,5,8,8,11,11,14,17,17,decamethyl-5,14-diisobutyl-Δ^3,15-3,4,15,16-tetraaza-6,7,12,13-tetraoxaoctadecadiene]
temperature at which it evolves nitrogen [1]: 30 °C

CC(C)(C)N=NC(=O)NCC(=O)O [XVII, tert.-butylazo-N-carboxymethylformamide]
temperature at which it begins to evolve nitrogen [1]: 60 °C

CC(C)(C)N=NC1(C(N)=O)CCCCC1 [XXIV, 1-tert. butylazo-1-carbamylcyclohexane]
temperature at which it evolves nitrogen [1]: above 120 °C

CC(C)CC(C)(N=NC(C)(C)C)OOC(C)(CC(C)C)N=NC(C)(C)C (stereo not drawn) [LVIII, Di[1-(t-butylazo)-1,3-dimethylbutyl] Peroxide]
thermal stability / gas evolution, in words [1]: began to gas rapidly upon reaching room temperature

CC(C)(C)N=NC1=CCCCC1 [XXIII, 1(-tert.-butylazo)cyclohexene]
temperature at which it evolves nitrogen [1]: 60 °C

CC(C)(C)N=NC(C)(C)C(N)=O [XXV, 2-t-butylazo-2-carbamylpropane]
temperature at which it evolves nitrogen [1]: above 120 °C

CC(C)(C)N=NC(N)=O [Example XIII, tert.-butylazoformamide]
t 1/2 ([2]; 120° C., gas evolution technique, trichlorobenzene): 3.00 h
t 1/2 ([2]; 130° C., gas evolution technique, trichlorobenzene): 0.87 h
t 1/2 ([2]; 150° C., gas evolution technique, trichlorobenzene): 0.14 h

CC(C)CC(C#N)(CC(C)C)N=NC(C)(C)C [Example VII, 4-tert.-butylazo-4-cyano-2,6-dimethylheptane]
temperature at which it begins to evolve nitrogen [1]: 70 °C

CC(C)(C#N)N=NC(C)(C)c1ccccc1 [Example XI, Alpha-(tert.-cumylazo)isobutyronitrile]
temperature at which it begins to evolve nitrogen [1]: 55 °C

CC1CC(C)(C)CC(C#N)(N=NC(C)(C)C)C1 (stereo not drawn) [VIII, 1-tert.-butylazo-1-cyano-3,3,5-trimethylcyclohexane]
temperature at which it begins to evolve nitrogen [1]: 100 °C

CC(C)(C)N=NC(=O)C(C)(C)C [Example XIX, Pivaloyl tert.-butyldiimide]
temperature at which it evolves nitrogen [1]: 35 °C

CC(C)(C)NNC1(C#N)CCCCC1 [1-tert.-butylhydrazo-1-cyanocyclohexane]
stability on exposure to air ([1]; over extended periods): evolves HCN on exposure to air over extended periods

COC(=O)CNC(=O)N=NC(C)(C)C [XVI, tert.-butylazo-N-carbmethoxymethylformamide]
temperature at which it begins to evolve nitrogen [1]: 140 °C

CC(C)(C)N=NC(C)(C#N)CCC(=O)O (stereo not drawn) [Example X, alpha-tert.-butylazo-alpha-methyl-gamma-carboxybutyronitrile]
half-life ([2]; 75° C.): 11.0 h
half-life ([2]; 85° C.): 3.15 h
temperature at which it begins to evolve nitrogen [1]: 85 °C

CC(C)(C)N=NC1(C#N)CCCCC1 [IV, 1-tert.-butylazo-1-cyanocyclohexane]
toxicity relative to IXA and its decomposition residue [3]: significantly less toxic

CC(C)(C)N=NC(=O)c1ccccc1 [Example XX, Benzoyl tert.-butyldiimide]
temperature at which it evolves nitrogen [1]: 25 °C

CC(C)(C)N=NC(C)(C)C#N [Example I, Alpha-(tert.-butylazo) isobutyronitrile]
t 1/2 ([2]; 78.8° C.): 10.0 h
t 1/2 ([2]; 90° C.): 2.0 h
t 1/2 ([2]; 100° C.): 0.54 h
t 1/2 ([2]; 110° C.): 0.20 h
toxicity relative to IXA and its decomposition residue [3]: significantly less toxic
solubility in petroleum solvents [4]: soluble in petroleum solvents
gas produced [5]: 179 cc. of gas per gram

CC(C)(C#N)N=NC(C)(C)C#N [2,2'-azobisisobutyronitrile]
toxicity [6]: toxic solid
solubility in most of the organic common solvents ([7]; aromatic hydrocarbons, dioxane, alcohol, ether, carbon tetrachloride): very low or limited solubility
solubility in petroleum hydrocarbon solvents [7]: insoluble

CC(C)(C)N=NC(C)(C#N)C(C)(C)C (stereo not drawn) [IX, 2-tert.-butylazo-2-cyano-3,3-dimethylbutane]
temperature at which it begins to evolve nitrogen [1]: 95 °C

CC(C)OC(=O)N=NC(C)(C)c1ccccc1 [Isopropyl tert.-cumylazocarboxylate]
temperature at which it evolves nitrogen [1]: 80 °C
